Measurements taken from ChEMBL document CHEMBL1201862, “PubChem BioAssay data set” (2004).
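Results reflect a 48-hour exposure of cells in 96-well plates to compound at five concentrations. The concentration for 50% growth inhibition is given as GI50.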 Activity calls are given as the source filed them. Cut-off read from the data, not from the text of the source: active = GI50 up to about 1.1 µM and inactive = higher.

Legend:
Assay in all cases: NCI anticancer screen, dose series, 48 h
UO-31 = test system: UO-31
SK-OV-3 = test system: SK-OV-3
NCI/ADR-RES = test system: NCI/ADR-RES
OVCAR-4 = test system: OVCAR-4
T47D = test system: T47D
SF-295 = test system: SF-295
MCF7 = test system: MCF7
Malme-3M = test system: Malme-3M
ACHN = test system: ACHN
OVCAR-8 = test system: OVCAR-8
SN12C = test system: SN12C
UACC-257 = test system: UACC-257
Hs-578T = test system: Hs-578T
CAKI-1 = test system: CAKI-1
SNB-19 = test system: SNB-19
HT-29 = test system: HT-29
NCI-H226 = test system: NCI-H226
SK-MEL-28 = test system: SK-MEL-28
SK-MEL-2 = test system: SK-MEL-2
IGROV-1 = test system: IGROV-1
OVCAR-3 = test system: OVCAR-3
HL-60 = test system: HL-60
SK-MEL-5 = test system: SK-MEL-5
MDA-MB-231 = test system: MDA-MB-231
COLO 205 = test system: COLO 205
BT-549 = test system: BT-549
SF-268 = test system: SF-268
A549 = test system: A549
HCT-15 = test system: HCT-15
DU-145 = test system: DU-145
RPMI-8226 = test system: RPMI-8226
SW-620 = test system: SW-620
HOP-62 = test system: HOP-62
OVCAR-5 = test system: OVCAR-5
UACC-62 = test system: UACC-62
SF-539 = test system: SF-539
786-0 = test system: 786-0
PC-3 = test system: PC-3
HOP-92 = test system: HOP-92
NCI-H522 = test system: NCI-H522
CCRF-CEM = test system: CCRF-CEM
RXF 393 = test system: RXF 393
NCI-H460 = test system: NCI-H460
MOLT-4 = test system: MOLT-4
LOX IMVI = test system: LOX IMVI
MDA-N = test system: MDA-N
A498 = test system: A498
KM12 = test system: KM12
TK-10 = test system: TK-10
EKVX = test system: EKVX
MDA-MB-435 = test system: MDA-MB-435
U-251 = test system: U-251
M14 = test system: M14
NCI-H23 = test system: NCI-H23
K562 = test system: K562
HCT-116 = test system: HCT-116
SR = test system: SR
HCC 2998 = test system: HCC 2998
SNB-75 = test system: SNB-75

SMILES: COc1ccc(C(=C(Cl)c2ccccc2)c2ccc(OC)cc2)cc1
- GI50 (UO-31): > 100 µM (inactive)
- GI50 (SK-OV-3): > 100 µM (inactive)
- GI50 (NCI/ADR-RES): > 100 µM (inactive)
- GI50 (OVCAR-4): > 100 µM (inactive)
- GI50 (T47D): 16.1 µM (inactive)
- GI50 (SF-295): > 100 µM (inactive)
- GI50 (MCF7): > 100 µM (inactive)
- GI50 (Malme-3M): > 100 µM (inactive)
- GI50 (ACHN): > 100 µM (inactive)
- GI50 (OVCAR-8): > 100 µM (inactive)
- GI50 (SN12C): > 100 µM (inactive)
- GI50 (UACC-257): 86.5 µM (inactive)
- GI50 (Hs-578T): > 100 µM (inactive)
- GI50 (CAKI-1): > 100 µM (inactive)
- GI50 (SNB-19): > 100 µM (inactive)
- GI50 (HT-29): 11.9 µM (inactive)
- GI50 (NCI-H226): > 100 µM (inactive)
- GI50 (SK-MEL-28): > 100 µM (inactive)
- GI50 (SK-MEL-2): > 100 µM (inactive)
- GI50 (IGROV-1): > 100 µM (inactive)
- GI50 (OVCAR-3): > 100 µM (inactive)
- GI50 (HL-60): 57.8 µM (inactive)
- GI50 (SK-MEL-5): 79.3 µM (inactive)
- GI50 (MDA-MB-231): > 100 µM (inactive)
- GI50 (COLO 205): > 100 µM (inactive)
- GI50 (BT-549): > 100 µM (inactive)
- GI50 (SF-268): > 100 µM (inactive)
- GI50 (A549): > 100 µM (inactive)
- GI50 (HCT-15): > 100 µM
- GI50 (DU-145): > 100 µM (inactive)
- GI50 (RPMI-8226): 35.1 µM (inactive)
- GI50 (SW-620): > 100 µM (inactive)
- GI50 (HOP-62): > 100 µM (inactive)
- GI50 (OVCAR-5): > 100 µM (inactive)
- GI50 (UACC-62): > 100 µM (inactive)
- GI50 (SF-539): > 100 µM (inactive)
- GI50 (786-0): > 100 µM (inactive)
- GI50 (PC-3): > 100 µM (inactive)
- GI50 (HOP-92): > 100 µM (inactive)
- GI50 (NCI-H522): 84.3 µM (inactive)
- GI50 (CCRF-CEM): > 100 µM (inactive)
- GI50 (RXF 393): > 100 µM (inactive)
- GI50 (NCI-H460): > 100 µM (inactive)
- GI50 (MOLT-4): > 100 µM (inactive)
- GI50 (LOX IMVI): > 100 µM (inactive)
- GI50 (MDA-N): > 100 µM (inactive)
- GI50 (A498): > 100 µM (inactive)
- GI50 (KM12): > 100 µM (inactive)
- GI50 (TK-10): > 100 µM (inactive)
- GI50 (EKVX): > 100 µM (inactive)
- GI50 (MDA-MB-435): > 100 µM (inactive)
- GI50 (U-251): > 100 µM (inactive)
- GI50 (M14): > 100 µM (inactive)
- GI50 (NCI-H23): > 100 µM (inactive)
- GI50 (K562): > 100 µM (inactive)
- GI50 (HCT-116): 48.1 µM (inactive)

SMILES: CC(CC(N)C(=O)O)C(=O)O (stereo unspecified)
- GI50 (UO-31): > 100 µM (inactive)
- GI50 (NCI/ADR-RES): > 100 µM (inactive)
- GI50 (OVCAR-4): > 100 µM (inactive)
- GI50 (T47D): > 100 µM (inactive)
- GI50 (SF-295): > 100 µM (inactive)
- GI50 (Malme-3M): > 100 µM (inactive)
- GI50 (ACHN): > 100 µM (inactive)
- GI50 (OVCAR-8): > 100 µM (inactive)
- GI50 (SN12C): > 100 µM (inactive)
- GI50 (UACC-257): > 100 µM (inactive)
- GI50 (Hs-578T): > 100 µM (inactive)
- GI50 (CAKI-1): > 100 µM (inactive)
- GI50 (SNB-19): > 100 µM (inactive)
- GI50 (HT-29): > 100 µM (inactive)
- GI50 (NCI-H226): > 100 µM (inactive)
- GI50 (SK-MEL-28): > 100 µM (inactive)
- GI50 (SK-MEL-2): > 100 µM (inactive)
- GI50 (IGROV-1): > 100 µM (inactive)
- GI50 (OVCAR-3): > 100 µM (inactive)
- GI50 (HL-60): > 100 µM (inactive)
- GI50 (SR): > 100 µM (inactive)
- GI50 (SK-MEL-5): > 100 µM (inactive)
- GI50 (MDA-MB-231): > 100 µM (inactive)
- GI50 (BT-549): > 100 µM (inactive)
- GI50 (SF-268): > 100 µM (inactive)
- GI50 (A549): > 100 µM (inactive)
- GI50 (HCT-15): > 100 µM
- GI50 (DU-145): > 100 µM (inactive)
- GI50 (SW-620): > 100 µM (inactive)
- GI50 (HOP-62): > 100 µM (inactive)
- GI50 (OVCAR-5): > 100 µM (inactive)
- GI50 (UACC-62): > 100 µM (inactive)
- GI50 (786-0): > 100 µM (inactive)
- GI50 (PC-3): > 100 µM (inactive)
- GI50 (HOP-92): > 100 µM (inactive)
- GI50 (NCI-H522): > 100 µM (inactive)
- GI50 (CCRF-CEM): > 100 µM (inactive)
- GI50 (RXF 393): > 100 µM (inactive)
- GI50 (NCI-H460): > 100 µM (inactive)
- GI50 (MOLT-4): > 100 µM (inactive)
- GI50 (LOX IMVI): > 100 µM (inactive)
- GI50 (MDA-N): > 100 µM (inactive)
- GI50 (A498): > 100 µM (inactive)
- GI50 (KM12): > 100 µM (inactive)
- GI50 (TK-10): > 100 µM (inactive)
- GI50 (EKVX): > 100 µM (inactive)
- GI50 (MDA-MB-435): > 100 µM (inactive)
- GI50 (U-251): > 100 µM (inactive)
- GI50 (M14): > 100 µM (inactive)
- GI50 (NCI-H23): > 100 µM (inactive)
- GI50 (K562): > 100 µM (inactive)
- GI50 (HCT-116): > 100 µM (inactive)

SMILES: O=C(c1ccccc1)N1OCCC1Nc1ccc(Br)cc1 (stereo unspecified)
- GI50 (UO-31): 1.87 µM (inactive)
- GI50 (SK-OV-3): > 10 µM (inactive)
- GI50 (NCI/ADR-RES): 5.43 µM (inactive)
- GI50 (OVCAR-4): > 10 µM (inactive)
- GI50 (T47D): > 10 µM (inactive)
- GI50 (SF-295): 2.08 µM (inactive)
- GI50 (MCF7): 5.97 µM (inactive)
- GI50 (Malme-3M): 3.34 µM (inactive)
- GI50 (ACHN): 0.615 µM (active)
- GI50 (OVCAR-8): > 10 µM (inactive)
- GI50 (SN12C): > 10 µM (inactive)
- GI50 (UACC-257): > 10 µM (inactive)
- GI50 (Hs-578T): > 10 µM (inactive)
- GI50 (CAKI-1): 4.03 µM (inactive)
- GI50 (SNB-19): > 10 µM (inactive)
- GI50 (HT-29): 0.818 µM (active)
- GI50 (NCI-H226): > 10 µM (inactive)
- GI50 (SK-MEL-28): > 10 µM (inactive)
- GI50 (SK-MEL-2): > 10 µM (inactive)
- GI50 (IGROV-1): > 10 µM (inactive)
- GI50 (OVCAR-3): > 10 µM (inactive)
- GI50 (HL-60): 3.47 µM (inactive)
- GI50 (SK-MEL-5): 6.97 µM (inactive)
- GI50 (MDA-MB-231): > 10 µM (inactive)
- GI50 (COLO 205): 1.81 µM (inactive)
- GI50 (BT-549): > 10 µM (inactive)
- GI50 (SF-268): 5.21 µM (inactive)
- GI50 (A549): 3.64 µM (inactive)
- GI50 (HCC 2998): 3.85 µM (inactive)
- GI50 (HCT-15): 0.604 µM
- GI50 (DU-145): 6.24 µM (inactive)
- GI50 (RPMI-8226): 4.71 µM (inactive)
- GI50 (SW-620): 0.818 µM (active)
- GI50 (HOP-62): 7.57 µM (inactive)
- GI50 (OVCAR-5): > 10 µM (inactive)
- GI50 (SF-539): 2.08 µM (inactive)
- GI50 (786-0): > 10 µM (inactive)
- GI50 (PC-3): 2.04 µM (inactive)
- GI50 (NCI-H522): > 10 µM (inactive)
- GI50 (CCRF-CEM): 3.8 µM (inactive)
- GI50 (RXF 393): > 10 µM (inactive)
- GI50 (NCI-H460): 5.45 µM (inactive)
- GI50 (MOLT-4): 4 µM (inactive)
- GI50 (SNB-75): > 10 µM (inactive)
- GI50 (LOX IMVI): > 10 µM (inactive)
- GI50 (MDA-N): 3.8 µM (inactive)
- GI50 (TK-10): > 10 µM (inactive)
- GI50 (EKVX): > 10 µM (inactive)
- GI50 (MDA-MB-435): 0.499 µM (active)
- GI50 (M14): 4.99 µM (inactive)
- GI50 (NCI-H23): > 10 µM (inactive)
- GI50 (K562): 0.423 µM (active)
- GI50 (HCT-116): 4.25 µM (inactive)
